Laboratory results: patent US20240299376A1, “METHOD OF TREATING A CONDITION USING A […] EFFECTIVE DOSE OF 1-(1-OXO-1,2-DIHYDROISOQUINOLIN-5-YL)-5-(TRIFLUOROMETHYL)-N-(2-(TRIFLUOROMETHYL)PYRIDIN-4-YL)-1H-PYRAZOLE-4-CARBOXAMIDE” (Janssen Pharmaceutica NV, priority 2021, published 2024)
Where “and” joins values, the source holds several entries; their conditions need not be identical. Identical values can stand only once. Entries after “also recorded” stand apart in the source; their conditions may differ. Like-named read-outs stand apart in the source and are kept apart here. Marks after values point to notes of the source that are not given here.

Experiment: FIH study 67856633LYM1001 plasma pharmacokinetics
Assay type: in vivo, human
Settings: for AUC: read-out: AUCτ
Excerpt: The study consists of a dose escalation phase (Part 1), to determine the recommended Phase 2 dose(s) (RP2D[s]), followed by an expansion phase at the RP2D(s) (Part 2). The dose escalation phase is supported using an adaptive dose escalation strategy guided by the modified continual reassessment method (mCRM) based on a Bayesian Logistic Regression Model (BLRM) with escalation with overdose control (EWOC) principle. The mCRM design allows the use of all cumulative dose-limiting toxicities (DLT) data up to the current dose cohort.
In Part 1, subjects were enrolled in cohorts of daily oral doses at 50 mg, 100 mg, 200 mg (1×200 mg or 4×50 mg), 300 mg (3×100 mg or 6×50 mg), 400 mg (2×200 mg or 8×50 mg), and 600 mg (3×200 mg), and loading dosing cohorts—400 mg loading dose once daily for 14 days, followed by 300 mg once daily, and 300 mg loading dose twice daily for 7 days followed by 300 mg once daily. In Part 2, subjects received daily oral doses of 300 mg.
In Part 1, PK data were available in subjects receiving doses of 50 mg (1×50 mg), 100 mg (2×50 mg), 200 mg (4×50 mg or 1×200 mg), 300 mg (6×50 mg or 3×100 mg), 400 mg (8×50 mg or 2×200 mg), and 600 mg (3×200 mg). Pharmacokinetic data were also available from the loading dose regimens of 400 mg (8×50 mg) loading dose once daily for 14 days followed by 300 mg (6×50 mg) once daily, and 300 mg (6×50 mg) loading dose twice daily for 7 days followed by 300 mg (6×50 mg) once daily.

[1] = Cycle 1 Day 1, 200 mg capsule, cohort 3 × 200 mg, individual values, N = 2, listed as JNJ-67856633
[2] = Cycle 2 Day 1, 50 mg capsule, cohort 6 × 50 mg (300 mg QD), mean, listed as JNJ-67856633
[3] = Cycle 2 Day 1, 200 mg capsule, cohort 200 mg, individual values, N = 2, listed as JNJ-67856633
[4] = Cycle 2 Day 1, 200 mg capsule, cohort 3 × 200 mg, individual values, N = 2, listed as JNJ-67856633
[5] = Cycle 2 Day 1, cohort 6 × 50 mg BID > QD, individual values, N = 2, listed as JNJ-67856633
[6] = Cycle 2 Day 1 / Cycle 1 Day 1, 50 mg capsule, cohort 50 mg, mean
[7] = Cycle 2 Day 1 / Cycle 1 Day 1, cohort 2 × 50 mg, mean
[8] = Cycle 2 Day 1 / Cycle 1 Day 1, cohort 2 × 200 mg food adlib, mean
[9] = Cycle 2 Day 1 / Cycle 1 Day 1, cohort 2 × 200 mg, mean
[10] = Cycle 2 Day 1 / Cycle 1 Day 1, cohort 3 × 200 mg, individual values, listed as JNJ-67856633
[11] = Cycle 2 Day 1 / Cycle 1 Day 1, cohort 4 × 50 mg, mean
[12] = Cycle 2 Day 1 / Cycle 1 Day 1, cohort 6 × 50 mg, mean
[13] = Cycle 2 Day 1 / Cycle 1 Day 1, cohort 8 × 50 mg > 6 × 50 mg, mean
[14] = Cycle 2 Day 1 / Cycle 1 Day 1, cohort 8 × 50 mg, mean

With `O=C(Nc1ccnc(C(F)(F)F)c1)c1cnn(-c2cccc3c(=O)[nH]ccc23)c1C(F)(F)F` [Compound A, 1-(1-oxo-1,2-dihydroisoquinolin-5-yl)-5-(trifluoromethyl)-N-[2-(trifluoromethyl)pyridin-4-yl]-1H-pyrazole-4-carboxamide] the AUCτ (Cycle 1 Day 1, 50 mg capsule, cohort 6 × 50 mg (300 mg QD), mean, n = 9, listed as JNJ-67856633) was 152^c μg · h/mL, the Cmax (Cycle 1 Day 1, 50 mg capsule, cohort 6 × 50 mg (300 mg QD), mean, listed as JNJ-67856633) was 8.81 µg/mL and the Tmax (Cycle 1 Day 1, 200 mg capsule, cohort 3 × 200 mg, individual values, N = 2) was 3.00, 3.00 h. It also gave an AUCτ [1] of 76.6 µg·h/mL, a Cmax [1] of 4.50 µg/mL and a Cmin (Cycle 2 Day 1, 50 mg capsule, cohort 50 mg, mean) of 6.85 µg/mL. For the same compound, the Cmin (Cycle 2 Day 1, 50 mg capsule, cohort 2 × 50 mg, mean) was 15.6 µg/mL, the Cmin (Cycle 2 Day 1, 50 mg capsule, cohort 4 × 50 mg, Subject 100032 excluded, mean) was 30.4^e μg/mL and the Cmin (Cycle 2 Day 1, 50 mg capsule, cohort 6 × 50 mg (300 mg QD), mean) was 39.5 µg/mL. The AUCτ [2] was 1144 µg·h/mL, the Cmax [2] was 55.2 µg/mL and the Cmin (Cycle 2 Day 1, 50 mg capsule, cohort 8 × 50 mg, mean) was 55.6 µg/mL. The Cmax [3] was 14.5 µg/mL, the Cmin [3] was 15.5, μg/mL and 11.4 μg/mL and the Tmax [3] was 0.5 h. For the same compound, the Cmin (Cycle 2 Day 1, 200 mg capsule, cohort 2 × 200 mg food adlib, mean) was 33.3 µg/mL, the Cmin (Cycle 2 Day 1, 200 mg capsule, cohort 2 × 200 mg, mean) was 30.7 µg/mL and the AUCτ [4] was 458 µg·h/mL and 1811 µg·h/mL. The Cmax [4] was 21.2, μg/mL and 98.6 μg/mL, the Cmin [4] was 13.5 µg/mL and 71.2 µg/mL and the Tmax [4] was 0.00 h and 0.50 h. The Cmax (Cycle 2 Day 1, cohort 6 × 50 mg BID > QD (300 mg BID 7 days then 300 mg QD), individual values, N = 2) was “about 29.2 μg/mL; also recorded: about 67 μg/mL”, the Cmax (Cycle 2 Day 1, cohort 6 × 50 mg BID > QD (300 mg BID 7 days then 300 mg QD), individual values, N = 2, listed as JNJ-67856633) was 29.2, μg/mL and 67.0 μg/mL and the AUCτ (Cycle 2 Day 1, cohort 6 × 50 mg BID > QD, individual values, N = 2) was “about 651 μg · h/mL; also recorded: about 1406 μg · h/mL”. For the same compound, the AUCτ [5] was 651 µg·h/mL and 1406 µg·h/mL, the Cmin [5] was 26.1, μg/mL and 50.6 μg/mL and the Tmax [5] was 3.00, 3.00 h. For the same compound, the Cmin (Cycle 2 Day 1, cohort 8 × 50 mg > 6 × 50 mg, Subject 100070 excluded, mean) was 55.8^g μg/mL, the ARAUC [6] was 8.37 and the ARCmax [6] was 7.30. The ARAUC (Cycle 2 Day 1 / Cycle 1 Day 1, 200 mg capsule, cohort 200 mg) was 5.51^i, the ARCmax (Cycle 2 Day 1 / Cycle 1 Day 1, 200 mg capsule, cohort 200 mg, individual values, listed as JNJ-67856633) was 4.81, and 3.21 and the ARAUC [7] was 7.80. For the same compound, the ARCmax [7] was 6.56, the ARAUC [8] was 12.7 and the ARCmax [8] was 12.0. For the same compound, the ARAUC [9] was 9.35, the ARCmax [9] was 7.40 and the ARAUC [10] was 3.73 and 23.7. For the same compound, the ARCmax [10] was 2.72 and 21.9, the ARAUC [11] was 8.10 and the ARCmax [11] was 7.32. For the same compound, the ARCmax (Cycle 2 Day 1 / Cycle 1 Day 1, cohort 6 × 50 mg BID > QD) was 10.4^j, the ARAUC [12] was 8.50 and the ARCmax [12] was 7.32. For the same compound, the ARAUC [13] was 9.80^g, h, the ARCmax [13] was 7.7^g and the ARAUC [14] was 12.4^f. The ARCmax [14] was 11.3^f, the AUC (human, plasma, oral, 50 mg, Cycle 1 Day 1, 50 mg capsule, cohort 50 mg, mean) was 29.1 µg·h/mL and the Cmax (human, plasma, oral, 50 mg, Cycle 1 Day 1, 50 mg capsule, cohort 50 mg, mean, read-out: Cmax) was 1.6 µg/mL. For the same compound, the Tmax (human, plasma, oral, 50 mg, Cycle 1 Day 1, 50 mg capsule, cohort 50 mg, median, read-out: Tmax) was 3 h, the AUC (human, plasma, oral, 50 mg, Cycle 2 Day 1, 50 mg capsule, cohort 50 mg, mean) was 180 µg·h/mL and the Cmax (human, plasma, oral, 50 mg, Cycle 2 Day 1, 50 mg capsule, cohort 50 mg, mean, read-out: Cmax) was 8.74 µg/mL. It also gave a Tmax (human, plasma, oral, 50 mg, Cycle 2 Day 1, 50 mg capsule, cohort 50 mg, median, read-out: Tmax) of 2 h, an AUC (human, plasma, oral, 100 mg, Cycle 1 Day 1, 50 mg capsule, cohort 2 × 50 mg, mean) of 51.4 µg·h/mL and a Cmax (human, plasma, oral, 100 mg, Cycle 1 Day 1, 50 mg capsule, cohort 2 × 50 mg, mean, read-out: Cmax) of 3 µg/mL. The Tmax (human, plasma, oral, 100 mg, Cycle 1 Day 1, 50 mg capsule, cohort 2 × 50 mg, median, read-out: Tmax) was 4 h, the AUC (human, plasma, oral, 100 mg, Cycle 2 Day 1, 50 mg capsule, cohort 2 × 50 mg, mean) was 366 µg·h/mL and the Cmax (human, plasma, oral, 100 mg, Cycle 2 Day 1, 50 mg capsule, cohort 2 × 50 mg, mean, read-out: Cmax) was 19.9 µg/mL.
